{
  "source": "patent US9260417B2",
  "about": "“Therapeutic methods and compositions involving allosteric kinase inhibition” (AMITECH THERAPEUTIC SOLUTIONS, INC., priority 2010, dated 2016)",
  "key": {"[1]": {"molecular_target": "MLK3 (Homo sapiens (Human), UniProt Q16584)", "sequence (Q16584 whole entry)": "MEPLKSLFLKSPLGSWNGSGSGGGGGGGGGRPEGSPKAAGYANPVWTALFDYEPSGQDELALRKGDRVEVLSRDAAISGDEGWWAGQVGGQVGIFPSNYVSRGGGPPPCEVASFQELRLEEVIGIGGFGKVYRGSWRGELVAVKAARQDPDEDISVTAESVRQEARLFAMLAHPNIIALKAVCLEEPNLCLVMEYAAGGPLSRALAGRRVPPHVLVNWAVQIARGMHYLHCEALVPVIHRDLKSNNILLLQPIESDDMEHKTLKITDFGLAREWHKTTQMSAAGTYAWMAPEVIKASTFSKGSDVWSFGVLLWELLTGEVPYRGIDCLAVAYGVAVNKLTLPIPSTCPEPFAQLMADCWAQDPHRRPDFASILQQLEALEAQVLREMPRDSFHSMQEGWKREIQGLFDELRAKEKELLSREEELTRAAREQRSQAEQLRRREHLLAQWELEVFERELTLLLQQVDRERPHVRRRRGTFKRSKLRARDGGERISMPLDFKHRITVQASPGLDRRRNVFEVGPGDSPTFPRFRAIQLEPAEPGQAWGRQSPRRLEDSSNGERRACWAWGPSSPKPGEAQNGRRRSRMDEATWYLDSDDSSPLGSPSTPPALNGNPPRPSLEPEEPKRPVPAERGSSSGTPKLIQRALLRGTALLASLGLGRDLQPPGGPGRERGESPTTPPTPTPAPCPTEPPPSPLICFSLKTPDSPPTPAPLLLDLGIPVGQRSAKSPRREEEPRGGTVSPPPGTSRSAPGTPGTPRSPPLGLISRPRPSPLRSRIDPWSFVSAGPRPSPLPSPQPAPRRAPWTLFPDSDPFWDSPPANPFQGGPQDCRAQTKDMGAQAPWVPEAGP", "assay": "KINOMEscan competitive binding assay", "conditions": "10 uM"}, "[2]": {"molecular_target": "p38-alpha (Homo sapiens (Human), UniProt Q16539)", "sequence (Q16539 whole entry)": "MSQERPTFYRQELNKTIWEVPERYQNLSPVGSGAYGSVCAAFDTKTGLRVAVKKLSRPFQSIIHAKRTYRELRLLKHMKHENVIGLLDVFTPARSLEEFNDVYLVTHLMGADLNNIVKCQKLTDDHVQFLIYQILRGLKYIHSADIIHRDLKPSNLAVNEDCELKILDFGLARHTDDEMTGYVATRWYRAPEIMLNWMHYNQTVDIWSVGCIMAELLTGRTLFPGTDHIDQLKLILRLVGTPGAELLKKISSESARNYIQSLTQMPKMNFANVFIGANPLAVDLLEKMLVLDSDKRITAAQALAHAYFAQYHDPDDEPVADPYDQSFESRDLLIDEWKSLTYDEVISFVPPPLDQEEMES", "assay": "KINOMEscan competitive binding assay", "conditions": "10 uM", "experimental": "For the competitive binding assay, test compounds were screened at 10 μM against 70 diverse kinase targets for competitive binding using the KINOMEscan™ technology (Ambit Biosciences) (Karaman, et al. (2008) Nature biotechnology 26:127-132). 11-point Kd curves were determined for hits identified during the initial screen."}, "[3]": {"molecular_target": "B-RAF/C-RAF dimerization (Homo sapiens (Human), UniProt P15056)", "sequence (P15056 whole entry)": "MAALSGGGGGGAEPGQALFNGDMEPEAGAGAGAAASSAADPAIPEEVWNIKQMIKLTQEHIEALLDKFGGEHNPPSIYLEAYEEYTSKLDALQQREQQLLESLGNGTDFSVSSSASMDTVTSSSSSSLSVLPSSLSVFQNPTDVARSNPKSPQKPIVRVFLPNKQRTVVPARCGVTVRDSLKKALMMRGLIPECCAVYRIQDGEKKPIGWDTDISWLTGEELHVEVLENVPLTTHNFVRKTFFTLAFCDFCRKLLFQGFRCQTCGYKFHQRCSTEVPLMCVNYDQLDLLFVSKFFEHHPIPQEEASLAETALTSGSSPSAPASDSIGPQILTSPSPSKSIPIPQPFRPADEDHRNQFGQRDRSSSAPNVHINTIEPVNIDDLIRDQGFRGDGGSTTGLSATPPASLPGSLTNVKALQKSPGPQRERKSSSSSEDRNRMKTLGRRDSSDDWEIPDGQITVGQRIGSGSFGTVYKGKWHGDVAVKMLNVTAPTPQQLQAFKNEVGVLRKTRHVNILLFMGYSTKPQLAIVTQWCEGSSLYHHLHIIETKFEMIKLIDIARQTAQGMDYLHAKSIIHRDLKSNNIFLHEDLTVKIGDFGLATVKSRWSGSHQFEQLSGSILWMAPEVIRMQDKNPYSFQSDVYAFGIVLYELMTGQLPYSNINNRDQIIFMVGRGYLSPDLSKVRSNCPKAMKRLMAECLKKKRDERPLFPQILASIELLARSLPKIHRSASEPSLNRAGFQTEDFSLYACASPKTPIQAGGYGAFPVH", "assay": "B-RAF/C-RAF dimerization in XPA-1 pancreatic cancer cells (immunoprecipitation/Western)", "format": "cell-based", "conditions": "XPA-1 cells"}, "[4]": {"system": "XPA-1-RFP pancreatic tumor xenografts", "assay": "Orthotopic pancreatic carcinoma model", "format": "in vivo, mice", "conditions": "50 mg/kg", "description": "Drug treatments were started 3 days after surgical orthotopic implantation (SOI) of XPA1-RFP tumors and tumor progression was monitored every 3 days by whole animal imaging. Scale bar=10 mm. […] Tumor surface area was calculated by adding the total pixels of both the ventral and lateral images of the tumor. *p=0.034. (FIG. 5C) Average body weight of the mice measured each day of whole animal imaging described in FIGS. 5A and 5B above. (FIG. 5D) Total weights of resected primary tumors on day 15 post (SOI), *p=0.022. (FIG. 5E) Representative fluorescent images of endothelial GFP expression (GFP expression driven by the Nestin promoter) within the XPA1-RFP tumors after resection. Images taken 15 days post SOI. Scale bar=200 μm. (FIG. 5F) Plot of tumor vessel density from images acquired as in FIG. 5E. Blood vessels imaged as in 5E were converted to length (mm) and normalized to the tumor volume (mm^3), *p=0.01.\nOrthotopic human pancreatic cancer xenografts from the pancreatic cancer cell line XPA1-RFP were established in nude mice by surgical orthotopic implantation (SOI). Briefly, subcutaneous XPA1-RFP tumors in the exponential growth phase were harvested and sectioned into 1 mm^3 pieces in serum-free RPMI medium. Mice were anesthetized using 50% ketamine, 38% xylazine and 12% agepromazine maleate injected intramuscularly at a dose of 2 μl/g, and their abdominal wall was sterilized with alcohol. A small incision was then made in the right pararectal line through the skin and peritoneum. The body of the pancreas was exposed and a 1 mm^3 tumor fragment was sutured to the pancreas using a single 8-0 nylon surgical suture (Davis-Geck, Inc. Manati, Puerto Rico). The pancreas was then returned to the abdomen and the peritoneum and skin were closed in two layers using 6-0 vicryl surgical suture.\nAt day 3 after SOL the animals began treatment with twice-daily IP injections of either compound, 6 (50 mg/kg dose in 200 μl total volume), or vehicle control at 12 hour intervals. […] At day 12 post-SOI the animals were sacrificed and their tumors were excised, weighed, and measured in 3 dimensions in order to calculate tumor volume. The tumor volume was calculated with the formula: volume=height×width×length×0.52. […] The total vessel length for each tumor was measured using Image-J software and converted to vessel density by dividing total tumor vessel length by tumor volume. […]\nRFP expressing XPA-1 pancreatic tumor xenografts were implanted into the pancreas of Nestin GFP-mice enabling detection of both developing blood vessels (GFP) and primary tumor (RFP). […] Tumor growth was monitored non-invasively by whole body imaging using the Olympus OV100 Small Animal Imaging System to detect the RFP signal from the tumor implant within the pancreas."}, "[5]": {"system": "neointimal hyperplasia", "assay": "Mouse carotid artery wire-injury model of neointimal hyperplasia", "format": "in vivo, mice", "description": "(FIG. 11A) Mouse carotid arteries were wire-injured as described in the Methods. […] (FIG. 11C) The corresponding percent stenosis (reflecting luminal narrowing) was calculated as described herein, *p<0.01. Error bars are reported as ±SEM. (FIG. 11D) PDGFRβ autophosphorylation in the injured arteries was measured on day 14, 4 h post-dose.\nRestenosis is a process that commonly results from balloon angioplasty and/or stent placement resulting in eventual occlusion of arteries by a process described as neointimal hyperplasia (NIH). […] Therefore, the combination of PDGFRβ/B-RAF inhibition would be an ideal treatment for NIH. […] Mouse carotid arteries were wire-injured and treated the following day with 100 mg/kg, qd, via oral gavage. Representative sections of the injured arteries, stained with hematoxylin and eosin (FIG. 11A), were used to calculate the intimal/medial ratio—a measurement of the thickness of the inner two layers of the artery wall, which correlates with the size of the vessel lumen. […] As a pharmacodynamic endpoint, representative arteries were excised 4 h after the final dose and lysates were immunoblotted to detect activated PDGFRβ."}, "[6]": {"system": "A549 cells", "assay": "Cell proliferation assay (BrdU ELISA) in A549 cells", "format": "cell-based", "conditions": "A549, low serum DMEM (0.5% FBS), 72 h", "description": "A549 cells, which endogenously express oncogenic K-RAS, were plated at 2500 cells/well of a 96-well plate in low serum DMEM (0.5% fetal bovine serum) overnight. The next morning, compounds were serially diluted in DMSO and resuspended in fresh DMEM+0.5% medium, which was added to the cells for 72 h. At this time point the cells were fixed and proliferation was quantified using an ELISA for bromodeoxyuriding incorporation (BrdU ELISA, Millipore, Inc.). BrdU incorporation occurs during S phase and is the classical method for determining cell proliferation rates. In FIG. 14B-C, BrdU incorporation is expressed as a percentage of the BrdU incorporation occurring in cells treated with 0.1% DMSO as control. A dotted line represents the growth rate of cells treated with DMSO alone. […] (FIG. 13C)"}},
  "data": [
    {"smiles": "CSc1nc(N)cc(Oc2ccc(-c3nnc(Nc4cccc(C(F)(F)F)c4)[nH]3)cc2)n1", "note": "[Compound 6]", "values": [
      {"measurement": "% Control", "setting": "[1]", "result": 96, "unit": "%"},
      {"measurement": "% Control", "setting": "[2]", "result": 100, "unit": "%"},
      {"measurement": "RAF dimerization and pS338-CRAF", "setting": "[3]", "result": "prevent RAF dimerization and pS338-CRAF"},
      {"measurement": "body weight", "setting": "[4]; bid", "result": "no weight loss"},
      {"measurement": "mean vessel length/tumor volume", "setting": "[4]; bid (vehicle 2.5)", "result": 0.2, "unit": "mm/mm^3"},
      {"measurement": "tumor growth", "setting": "[4]; bid, from day 3, 12 days post SOI", "result": "completely suppressed"},
      {"measurement": "average tumor weight", "setting": "[4]; resected on day 15, bid (vehicle 74.1 mg)", "result": 26.7, "unit": "mg"},
      {"measurement": "percent stenosis", "setting": "[5]; 100 mg/kg, qd, oral gavage, 14 days", "result": "greatly reduced"},
      {"measurement": "PDGFRβ activation in injured arteries", "setting": "[5]; 4 h after the final dose", "result": "inhibited PDGFRβ activation"},
      {"measurement": "cell proliferation (BrdU incorporation) versus DMSO control", "setting": "[6]", "result": "inhibitor cell proliferation"}
    ]}
  ]
}
